Reference: article PMC11997890, “In Vivo and In Vitro Pharmacokinetic Studies of a Dual Topoisomerase I/II Inhibitor” (ACS Pharmacology & Translational Science, 2025)

Key:
[1] = test system: LDL; assay: Binding to isolated plasma protein by ultrafiltration
Procedure: (§1) To examine the effect of the P8-D6 plasma protein binding on the in vivo bioavailability, human and rat plasma was spiked in vitro and incubated with P8-D6. By using ultrafiltration to separate free P8-D6 from the protein-bound fraction, a plasma protein binding of 99% (Figure A) was estimated. However, neither human α-1-microglobulin (3.06%) nor human serum albumin (0.91%) is responsible for binding. According to initial findings, γ-globulins (94.59%), human transferrin (90.43%), LDL (87.99%), human α2-HS glycoprotein (85.29%), and human fibrinogen (78.89%) lead to binding of P8-D6.
(§2) To examine the extent of plasma protein binding, 150 μL of blank samples of human plasma (1 mM) and rat plasma (1 mM), human albumin (1 mM, #A1653, Merck KGaA, Darmstadt); human α1-acid glycoprotein (1 mM; #G9885, Merck KGaA, Darmstadt); human α2-HS-glycoprotein (0.1 mM; #G0516, Merck KGaA, Darmstadt); human transferrin (0.2 mM; #T8158, Merck KGaA, Darmstadt); human fibrinogen (0.2 mM; #F3879, Merck KGaA, Darmstadt); LDL (0.2 mM; […]); and human γ-globulin (1 mM; #G4386, Merck KGaA, Darmstadt) were spiked with P8-D6 in the same final concentration as the protein and incubated in a shaking water bath at 37 °C for 120 min. Afterward, the unbound fraction of P8-D6 was separated by ultrafiltration (Vivaspin 500 10 000 MWCO filter). The sample preparation was performed according to plasma samples. Blank plasma samples served as the control samples.

[2] = molecular target: T1, human transferrin (Homo sapiens, UniProt P02787); assay: as above
T1 construct: purchased Merck KGaA, Darmstadt T8158
T1 sequence (P02787 20-698): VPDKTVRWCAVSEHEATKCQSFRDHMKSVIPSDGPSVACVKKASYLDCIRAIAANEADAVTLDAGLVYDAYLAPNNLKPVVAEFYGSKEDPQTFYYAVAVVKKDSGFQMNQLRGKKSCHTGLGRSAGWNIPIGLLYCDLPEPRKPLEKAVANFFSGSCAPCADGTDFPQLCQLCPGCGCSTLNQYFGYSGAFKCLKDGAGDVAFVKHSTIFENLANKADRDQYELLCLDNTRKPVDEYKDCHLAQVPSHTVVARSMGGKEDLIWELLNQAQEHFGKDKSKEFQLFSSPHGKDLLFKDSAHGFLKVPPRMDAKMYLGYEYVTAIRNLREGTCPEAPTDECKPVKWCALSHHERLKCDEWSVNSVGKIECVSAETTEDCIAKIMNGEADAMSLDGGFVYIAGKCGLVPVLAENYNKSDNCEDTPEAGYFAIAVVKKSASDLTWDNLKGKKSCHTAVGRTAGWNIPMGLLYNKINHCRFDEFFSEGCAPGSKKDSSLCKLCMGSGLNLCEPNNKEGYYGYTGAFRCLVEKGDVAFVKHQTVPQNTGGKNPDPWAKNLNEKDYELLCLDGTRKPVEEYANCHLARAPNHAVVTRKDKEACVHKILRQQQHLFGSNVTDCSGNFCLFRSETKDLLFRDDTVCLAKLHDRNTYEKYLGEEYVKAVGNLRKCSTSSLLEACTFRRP
Procedure: as §1, §2

Compound: COc1cc(-c2cc3ccncc3c3nc(OCCN(C)C)c4cnccc4c23)cc(OC)c1OC [P8-D6, 6-(N,N-dimethyl-2-aminoethoxy)-11-(3,4,5-trimethoxyphenyl)-pyrido[3,4-c][1,9]-phenanthroline]
- binding of P8-D6 [1]: 87.99%
- binding of P8-D6 [2]: 90.43%
